# Results: patent US4925877A, “Physiologically active erbstatin analogue compounds and compositions” (Zaidanhojin Biseibutsu Kagaku Kenkyukai, priority 1986, dated 1990)
# Where two headings read alike, the source gives them in different places.
# Legend:
# [1] = tested on: L 1210 leukemia cells; assay: Growth inhibition activity against cultured carcinoma cells (L 1210 leukemia cells); type: cell-based; conditions: Mus musculus, L1210, 72 h, read-out: L 1210 IC50 (50%-inhibition concentration against growth)
# Protocol: (B) Growth inhibition activity against cultured carcinoma cells:
# After the incubation, the number of the cells was counted and the activity was evaluated.
# [2] = biological target: T1, tyrosine-specific protein-kinase (epidermal growth factor receptor-kinase, A-431 membrane fraction) (Homo sapiens, UniProt P00533); assay: TPK-I activity (inhibition of tyrosine-specific protein-kinase / epidermal growth factor receptor-kinase, 32P-ATP, A-431 membrane fraction); type: biochemical
# T1 construct: a membrane fraction of human epidermal carcinoma cells A-431 was used; endogenous in cells; host or cells: A-431 human epidermal carcinoma cells, membrane fraction
# Protocol: 50 μl of the reaction mixture was sampled and absorbed to Wattman No. 3MM filter membrane and dipped in an ice-cooled TCA. After kept for 30 minutes, the filter membrane was taken out and washed out TCA, ethanol and ether, and the count of ^32 P as stuck to the said filter membrane was measured (a). The same reaction and treatment were carried out, where the test substance only was excluded, and the count of ^32 P on the filter was measured in the same manner (b). Further, the values as measured in the cases where the membrane fraction was excluded were (a') and (b'), respectively. Thus, the percentage of the inhibition of the epiderman growth factor receptor-kinase was calculated from the formula of […].
# The TPK-I activity of typical compounds of the present invention was extremely high at a low concentration, as shown in the following Table.
# [3] = tested on: Staphylococcus aureus Smith; assay: Antimicrobial activity, MIC by agar dilution method (Staphylococcus aureus Smith); type: cell-based; conditions: read-out: MIC (Staphylococcus aureus Smith)
# Protocol: (§1) The minimum growth inhibition concentration (MIC) of the compounds of the present invention against various bacteria was measured by means of an agar dilution method using Muller-Hinton medium, which is shown in the following Table.
# [4] = tested on: Psudomonas aeruginosa A3; assay: Antimicrobial activity, MIC by agar dilution method (Psudomonas aeruginosa A3); type: cell-based; conditions: read-out: MIC (Psudomonas aeruginosa A3)
# Protocol: as §1
# [5] = tested on: cultured carcinoma cells; conditions: MH435-A, earlier application; cited from earlier work
# [6] = tested on: various bacteria; conditions: MH435-A, earlier application; cited from earlier work
# [7] = biological target: T1, tyrosine-specific protein-kinase (epidermal growth factor receptor-kinase, A-431 membrane fraction); conditions: MH435-A, earlier application; cited from earlier work
# [8] = L 1210 leukemia cells, 3 days, 37° C., 5% CO2
# [9] = A-431 membrane fraction, EGF, histone, pH 7.4, 0° C., 30 minutes, read-out: TPK-I IC50 (converted)
# [10] = agar dilution method, Muller-Hinton medium
# T1 sequence (P00533 25-1210): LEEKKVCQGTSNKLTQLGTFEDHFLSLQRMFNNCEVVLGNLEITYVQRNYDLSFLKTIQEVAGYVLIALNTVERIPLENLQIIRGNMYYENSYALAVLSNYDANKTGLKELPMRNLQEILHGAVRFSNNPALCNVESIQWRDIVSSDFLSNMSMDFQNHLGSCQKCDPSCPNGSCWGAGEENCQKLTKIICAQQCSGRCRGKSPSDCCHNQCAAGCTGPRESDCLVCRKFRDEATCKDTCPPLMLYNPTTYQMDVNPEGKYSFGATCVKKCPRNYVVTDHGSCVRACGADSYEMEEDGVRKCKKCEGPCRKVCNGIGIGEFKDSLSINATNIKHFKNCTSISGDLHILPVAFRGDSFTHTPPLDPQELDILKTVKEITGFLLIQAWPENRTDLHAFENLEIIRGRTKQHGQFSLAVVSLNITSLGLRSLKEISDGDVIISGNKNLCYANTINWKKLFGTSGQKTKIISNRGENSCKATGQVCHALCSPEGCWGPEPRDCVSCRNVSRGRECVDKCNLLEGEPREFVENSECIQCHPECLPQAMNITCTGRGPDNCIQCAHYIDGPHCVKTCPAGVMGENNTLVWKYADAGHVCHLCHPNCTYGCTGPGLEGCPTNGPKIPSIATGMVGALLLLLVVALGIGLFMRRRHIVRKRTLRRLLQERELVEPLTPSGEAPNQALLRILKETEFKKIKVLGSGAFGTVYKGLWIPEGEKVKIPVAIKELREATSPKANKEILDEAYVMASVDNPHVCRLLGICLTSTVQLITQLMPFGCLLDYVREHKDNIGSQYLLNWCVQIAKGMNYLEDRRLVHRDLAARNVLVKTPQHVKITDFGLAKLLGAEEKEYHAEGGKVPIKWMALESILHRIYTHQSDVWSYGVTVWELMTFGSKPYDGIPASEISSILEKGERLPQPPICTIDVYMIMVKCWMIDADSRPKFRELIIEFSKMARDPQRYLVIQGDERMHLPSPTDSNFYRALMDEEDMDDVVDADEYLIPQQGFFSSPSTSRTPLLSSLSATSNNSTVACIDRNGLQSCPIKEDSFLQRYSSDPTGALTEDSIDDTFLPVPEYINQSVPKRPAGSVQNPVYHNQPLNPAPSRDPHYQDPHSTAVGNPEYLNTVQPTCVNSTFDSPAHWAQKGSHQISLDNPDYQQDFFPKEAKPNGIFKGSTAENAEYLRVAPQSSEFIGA
SMILES,"IC50 [1, 8]","IC50 [2, 9]","MIC [3, 10]","MIC [4, 10]",further results
O=CNC=Cc1cc(O)ccc1O [MH435-A],,,,,antitumor activity (in words) [5]: antitumor activity; antimicrobial activity (in words) [6]: has antimicrobial activity; inhibition of tyrosine-specific protein-kinase activity (in words) [7]: can inhibit the said protein-kinase activity in a low concentration
"CC(=O)NC=Cc1cc(O)ccc1O [Compound 18, (2-acetamidovinyl)-2,5-dihydroxybenzene]",3 µg/mL,15.5 µM,,,
"[C-]#[N+]C=Cc1cc(OC)ccc1OC [Compound 3, 2-(2,5-dimethoxyphenyl)vinylisocyanide]",,,,,IC50 [1]: 0.65 µg/mL; IC50 [2]: > 52.9 µM; MIC [3]: 3.12 µg/mL; MIC [4]: 25 µg/mL
"COc1ccc(OC)c(C=CNC=O)c1 [Compound 10, (2-formamidovinyl)-2,5-dimethoxybenzene]",62 µg/mL,> 145 µM,> 100 µg/mL,> 100 µg/mL,
"O=CNC=Cc1ccccc1O [Compound 12, (2-formamidovinyl)-2-hydroxybenzene]",30 µg/mL,,> 100 µg/mL,> 50 µg/mL,

# Further lines, with some results ahead:
"IC50 [1, 8]","IC50 [2, 9]","MIC [3, 10]","MIC [4, 10]",SMILES,further results
0.25 µg/mL,> 28.6 µM,6.25 µg/mL,12.5 µg/mL,"[C-]#[N+]C=Cc1cc(Br)ccc1O [Compound 2, 2-(5-bromo-2-hydroxyphenyl)vinylisocyanide]",
23 µg/mL,> 33.1 µM,> 100 µg/mL,> 50 µg/mL,"COc1ccc(O)c(C=CNC=O)c1 [Compound 11, (2-formamidovinyl)-2-hydroxy-5methoxybenzene]",
22 µg/mL,7.26 µM,> 50 µg/mL,25 µg/mL,"O=CNC=Cc1ccc(O)c(O)c1 [Compound 14, (2-formamidovinyl)-3,4-dihydroxybenzene]",
12 µg/mL,> 26.4 µM,100 µg/mL,> 50 µg/mL,"O=CNC=Cc1cc(Br)ccc1O [Compound 9, (2-formamidovinyl)-5-bromo-2-hydroxybenzene]",
2.2 µg/mL,1.67 µM,100 µg/mL,100 µg/mL,"O=CNC=Cc1cccc(O)c1O [Compound 13, (2-formamidovinyl)-2,3-dihydroxybenzene]",
